For 88 compounds, IC50 results are on record in the COVID Moonshot data (paper PMC7615835).

The target of this experiment is SARS-CoV-2 Main Protease (SARS-CoV-2) (UniProt P0DTD1).

Where “and” joins values, the source holds several entries; their conditions need not be identical. Equal entries are not always repeated.

Take `O=C(NCCc1cccc(F)c1)C(c1cccnc1)N(C(=O)c1cnc[nH]1)c1ccc2c(c1)CCC(=O)N2CC(F)F` (stereo not drawn): the IC50 (as a rule, the concentration that gives 50% inhibition) was determined as 47.8 µM.

Take `C[C@H](C/C=C/C(C)(C)O)[C@H]1CC[C@@]2(C)[C@@H]3C=C[C@]45OC(O)[C@@]3(CC[C@]12C)[C@@H]4CC[C@H](O[C@@H]1O[C@H](CO)[C@@H](O)[C@H](O)[C@H]1O)C5(C)C` (stereo in doubt): the IC50 is above 99.5 µM.

The compound `CS(=O)(=O)N1Cc2cc(F)c(Cl)cc2C(C(=O)Nc2cncc3ccccc23)C1` (stereo not drawn) returned an IC50 of 0.258 µM.

In turn, `Cc1nc(N2CCN(S(=O)(=O)c3ccccc3)CC2)sc1S(N)(=O)=O` came in with an IC50 above 99.5 µM.

Regarding `N#CC1(CS(=O)(=O)N2Cc3ccc(Cl)cc3C(C(=O)Nc3cncc4ccccc34)C2)CCOCC1` (stereo not drawn), the IC50 was 0.0804 µM and 0.0971 µM and 0.17 µM.

Compound `Cc1ccncc1NC(=O)Cc1cc(Cl)cc(-c2cnn(C)c2C(F)F)c1` yielded an IC50 of 19.3 µM.

Compound `O=C(Cc1cc(Cl)cc(N2CCn3c(nnc3C(F)(F)F)C2)c1)Nc1cncc2ccccc12` came in with an IC50 of 2.01 µM.

As for `N#Cc1nccc(Cl)n1`, the IC50 was above 99.5 µM.

`CCNC(=O)CN1CC(C(=O)Nc2cncc3cc(F)ccc23)c2cc(Cl)ccc2C1=O` (stereo not drawn) yielded a concentration for half-maximal inhibition (IC50) of 0.161 µM.

Compound `O=C(c1cc(=O)cc[nH]1)N1CCN(c2cccc(Cl)c2)CC1` yielded an IC50 above 99.5 µM.

Compound `O=C(Cc1cc(Cl)cc(N2CCN(c3ncccn3)CC2)c1)Nc1cncc2ccccc12` displayed an IC50 of 2.52 µM.

In turn, `O=C(Cc1cc(Cl)cc(Nc2ccc(Br)c([N+](=O)[O-])c2)c1)Nc1cncc2ccccc12` gave an IC50 of 2.06 µM.

With `O=C(Nc1cccnc1)N1CCC(CN2CCc3ccccc32)CC1`, the IC50 was above 99.5 µM.

In turn, `O=C(Cc1cc(Cl)cc(Nc2c(F)cc(F)cc2Cl)c1)Nc1cncc2ccccc12` yielded an IC50 of 2.06 µM.

Compound `O=C(Cc1cc(Cl)cc(Nc2ccc(-c3ccccc3)cc2)c1)Nc1cncc2ccccc12` returned an IC50 of 2.06 µM.

On to `C=CC(=O)N(c1ccc(C(F)(F)F)cc1)C(C(=O)NCCc1cccc(F)c1)c1cncc(Cl)c1` (stereo not drawn), for which the IC50 is 23.9 µM.

With `C=CC(=O)N(c1ccc(C(C)(C)C)cc1)[C@H](C(=O)NCCc1cccc(F)c1)c1cccnc1` (stereo in doubt), the IC50 turned out to be 2.86 µM.

`CC(C)(C)c1ccc(N(C(=O)c2nc(CN3CCOCC3)cs2)C(C(=O)NCCc2cccc(F)c2)c2cccnc2)cc1` (stereo not drawn) registered an IC50 above 99.5 µM.

As for `CN(C(=O)OC(C)(C)C)[C@H]1CCN(c2cc(Cl)cc(CC(=O)Nc3cncc4ccccc34)c2)C1` (stereo in doubt), the IC50 came to 4.21 µM.

On to `NCc1cn(CC(=O)N(Cc2ccsc2)c2ccc(-c3ccccc3)cc2)nn1`, for which the IC50 is above 99.5 µM.

Regarding `O=C(Cc1cccc(Cl)c1)Nc1cnccc1C(=O)O`, the IC50 is above 99.5 µM.

For the compound `CC(NC(=O)c1ccc2oc(=S)[nH]c2c1)c1nnc2ccccn12` (stereo not drawn), the IC50 is above 99.5 µM.

For the compound `O=C(Cc1nnn2ccccc12)N(Cc1ccccc1)c1ccc(N2CCCCC2)cc1`, the IC50 was above 99.5 µM.

The compound `COc1cnc(C#N)nc1` displayed an IC50 above 99.5 µM.

Turning to `Cc1ccncc1NC(=O)Cc1cc(Cl)cc(-c2ccc(C3(C)CCO3)cc2)c1` (stereo not drawn), the IC50 worked out at 8.95 µM.

As to `CS(=O)(=O)N1CCN(C(=O)CCl)CC1c1ccccc1` (stereo not drawn), the IC50 amounted to 10.6 µM.

Compound `O=C(NCCc1cccc(F)c1)C(c1cccnc1)N(C(=O)c1ccco1)C1CCN(c2ccccc2)CC1` (stereo not drawn) displayed an IC50 of 79.6 µM.

With `O=C(Nc1ccncc1)[C@@H](c1ccccc1)N1Cc2ccccc2C1=O` (stereo in doubt), the IC50 was above 99.5 µM.

In turn, `CNC(=O)CN1CC(C(=O)Nc2cncc3ccc(S(C)(=O)=O)cc23)c2cc(Cl)ccc2C1=O` (stereo not drawn) showed a concentration for half-maximal inhibition (IC50) of 0.33 µM.

`CS(=O)(=O)c1ccc2c(NC(=O)C3CN(S(=O)(=O)CC4(C#N)CC4)Cc4ccc(Cl)cc43)cncc2c1` (stereo not drawn): the IC50 is 0.0582 µM and 0.117 µM.

With `CC1(CS(=O)(=O)N2Cc3ccc(Cl)cc3C(C(=O)Nc3cncc4cccc(Cl)c34)C2)CS(=O)(=O)C1` (stereo not drawn), the IC50 stood at 0.957 µM.

`O=C(Cc1cc(Cl)cc(Nc2ccn([C@H]3C[C@H](O)[C@@H](CO)O3)c(=O)n2)c1)Nc1cncc2ccccc12` (stereo in doubt) yielded an IC50 of 1.84 µM.

`O=C(Nc1cncc2ccccc12)N(CCC1CCCCC1)c1cccc(Cl)c1` came in with an IC50 of 0.261 µM.

Consider `CN(Cc1ccccc1Br)c1cc(Cl)cc(CC(=O)Nc2cncc3ccccc23)c1`, for which the IC50 worked out at 2.11 µM.

As to `COc1ccc(N(C(=O)c2cocn2)C(C(=O)NCCc2cccc(F)c2)c2cccnc2)cc1` (stereo not drawn), the IC50 came out at 22.2 µM.

`O=C(Nc1ccc(N(Cc2ccsc2)C(=O)Cn2nnc3ccccc32)cc1)C1CC1` gave an IC50 of 3.99 µM.

For `O=C(Cc1cc(Cl)cc(Nc2ncnc3c2ncn3CCO)c1)Nc1cncc2ccccc12`, the IC50 amounted to 1.82 µM.

`COC(=O)C(C(=O)Nc1cnccc1C)c1cccc(Cl)c1` (stereo not drawn) displayed an IC50 of 23.7 µM.

With `COc1ccc2c(c1)c(N)nn2C(=O)Cc1cccc(Cl)c1`, the IC50 is above 99.5 µM.

For `COCc1csc(-c2nnc(-c3sc(-c4ccccc4)nc3C)o2)c1`, the IC50 is above 99.5 µM.

For the compound `CC(NCc1c[nH]c2nccnc12)c1cc(F)ccc1N1CCC(O)CC1` (stereo not drawn), the IC50 is above 99.5 µM.

The compound `Cc1ccn2ncc(C(=O)Nc3ccc4[nH]c(C)cc(=O)c4c3)c2n1` returned an IC50 above 99.5 µM.

Consider `O=C(Cc1c[nH]c2cc(Cl)ccc12)Nc1cccc2[nH]c(=O)[nH]c12`, for which the IC50 is above 99.5 µM.

In turn, `CC(C)(C)c1ccc(N(C(=O)c2cocn2)C(C(=O)NCCc2cnc[nH]2)c2cccnc2)cc1` (stereo not drawn) displayed an IC50 of 14.5 µM.

As to `COCc1ccc2cncc(NC(=O)Cc3cccc(Cl)c3)c2c1`, the IC50 was 2.21 µM.

Turning to `Cn1cnc2cc(N(C(=O)c3cocn3)C(C(=O)NCCc3cccc(F)c3)c3cccnc3)ccc21` (stereo not drawn), the IC50 was above 99.5 µM.

Regarding `CC(C)(C)OC(=O)NCCCNC(=O)C(c1cccnc1)N(C(=O)c1cocn1)c1ccc(C(C)(C)C)cc1` (stereo not drawn), the IC50 amounted to 3.39 µM.

Take `COC1(c2cccc(Cl)c2)CCCN(c2cncc3ccccc23)C1=O` (stereo not drawn): the IC50 turned out to be 2.08 µM.

Consider `COc1cc2cncc(NC(=O)Cc3cccc(Cl)c3)c2cc1F`, for which the IC50 is above 99.5 µM.

For `Cn1c(=O)[nH]c(=O)c2ccc(C(=O)N(c3ccc(C(C)(C)C)cc3)C(C(=O)NCCc3cccc(F)c3)c3cccnc3)nc21` (stereo not drawn), the IC50 was above 99.5 µM.

Turning to `CCOC(=O)c1cc(-c2ccccc2)sc1NC(=O)Cc1csc(-c2ccccc2)n1`, the IC50 amounted to 4.66 µM.

As for `O=C(Cc1cccc(Cl)c1)Nc1cncc2c1OCCC2`, the IC50 was 10.1 µM and 14 µM.

For the compound `CN(Cc1nc2ccccc2s1)C(=O)c1ccc2c(c1)nnn2C`, the IC50 is above 99.5 µM.

With `NC(=O)c1ccc(Cl)c(Nc2cc(Cl)cc(CC(=O)Nc3cncc4ccccc34)c2)c1`, the IC50 worked out at 1.79 µM.

Compound `O=C(Cc1cc(Cl)cc(Nc2ccc(Cl)nc2Cl)c1)Nc1cncc2ccccc12` came in with an IC50 of 2.31 µM.

As to `O=C(Nc1cccc2c[nH]nc12)C1CCOc2ccc(Cl)cc21` (stereo not drawn), the IC50 was above 99.5 µM.

For `O=C(NCc1cccc(Cl)c1)c1cncc2ccccc12`, the IC50 amounted to 32 µM.

`O=C1CCc2cc(C(=O)N3CCC(C4CCNC4)CC3)ccc2N1` (stereo not drawn): the IC50 is above 99.5 µM.

The compound `O=C(NCCc1cccc(F)c1)C(c1cccnc1)N(C(=O)c1cocn1)c1ccc(C2(O)COC2)cc1` (stereo not drawn) came in with an IC50 above 99.5 µM.

`COc1ccccc1NC1CN(C(=O)c2cc(=O)[nH]c3ccccc23)C1` had an IC50 above 99.5 µM.

Turning to `CC1NC(=O)c2ccc(Cl)cc2C1C(=O)Nc1cncc2ccc(S(C)(=O)=O)cc12` (stereo not drawn), the IC50 turned out to be 1.99 µM.

As to `N#CC1(CS(=O)(=O)N2Cc3ccc(Cl)cc3C3(CCN(c4cncc5ccc(OCCCN6CCCC6)cc45)C3=O)C2)CC1` (stereo not drawn), the IC50 stood at 0.128 µM.

As for `NC(=O)C12COC(CNC(=O)CC3(C(=O)Nc4cncc5ccccc45)CCOc4ccc(Cl)cc43)(C1)C2` (stereo not drawn), the IC50 was 9.05 µM.

Compound `CS(=O)(=O)c1ccc2c(NC(=O)C3CN(CC(=O)NC4CC4)C(=O)c4ccc(Cl)cc43)cncc2c1` (stereo not drawn) yielded an IC50 of 0.214 µM.

Compound `CNC(=O)CN1CC2(CCN(c3cncc4cc(F)ccc34)C2=O)c2cc(Cl)ccc2C1=O` (stereo not drawn) registered an IC50 of 0.426 µM.

Regarding `CN(C)S(=O)(=O)N1Cc2ccc(Cl)cc2C(C(=O)Nc2cnccc2C(F)(F)F)C1` (stereo not drawn), the half-maximal inhibitory concentration (IC50) was determined as 28.8 µM.

For `O=C(Nc1n[nH]c2ccncc12)C1CCOc2ccc(Cl)cc21` (stereo not drawn), the IC50 is 70.3 µM.

For `Cc1ccncc1N1CCC(c2cccc(Cl)c2)C1=O` (stereo not drawn), the IC50 was 44.7 µM.

On to `Cc1ccncc1NC(=O)Cc1cccc(Br)c1`, for which the IC50 turned out to be 20.6 µM.

Consider `Cc1c(C(=O)N2CCC(C3CCNC3)CC2)cccc1-c1ccccn1` (stereo not drawn), for which the IC50 was above 99.5 µM.

Compound `Cc1c(Br)cccc1Nc1cc(Cl)cc(CC(=O)Nc2cncc3ccccc23)c1` registered an IC50 of 2.13 µM.

Turning to `CC(C)Oc1ccc(N(C(=O)c2cocn2)C(C(=O)NCCc2cccc(F)c2)c2cccnc2)cc1` (stereo not drawn), the IC50 worked out at 0.609 µM.

Regarding `Cc1ccc(NC2=C(c3ccccc3)C(=O)N(Cc3cccnc3)C2=O)cc1Cl`, the IC50 was above 99.5 µM.

With `O=C(Nc1cncc2ccccc12)C1COCc2c(Cl)cccc21` (stereo not drawn), the IC50 was 7.02 µM.

On to `Cc1cc(Nc2cc(Cl)cc(CC(=O)Nc3cncc4ccccc34)c2)cc(C)c1Br`, for which the IC50 worked out at 2.14 µM.

For the compound `CC(C)(C)c1ccc(N(C(=O)c2ccno2)C(C(=O)NCCc2cccc(F)c2)c2cccnc2)cc1` (stereo not drawn), the IC50 came out at 1.11 µM.

In turn, `O=C(c1cc(=O)[nH]c2ccccc12)N1CCN(Cc2cccc(C(F)(F)F)c2)CC1` displayed an IC50 of 34.2 µM.

With `Cc1ccncc1NC(=O)CCc1cccc(F)c1`, the IC50 is 58.5 µM.

In the case of `O=C(NCC(c1ccccc1)c1c[nH]c2ccccc12)c1cnccn1` (stereo not drawn), the IC50 is above 99.5 µM.

Take `COCCNC(=O)C(c1cccnc1)N(C(=O)c1cocn1)c1ccc(C(C)(C)C)cc1` (stereo not drawn): the IC50 came to 8.46 µM.

For the compound `Cc1cc(Br)cc(C)c1Nc1cc(Cl)cc(CC(=O)Nc2cncc3ccccc23)c1`, the IC50 is 1.71 µM.

On to `O=C1CN(C(=O)Cc2cccc(Cl)c2)Cc2ccccc21`, for which the IC50 was above 99.5 µM.

`CCN1CCCC1C1CCCN1C(=O)CCc1c[nH]c2ccccc12` (stereo not drawn): the IC50 was above 99.5 µM.

Compound `N[C@@H](Cc1ccc(O)cc1)C(=O)Nc1cc(Cl)cc(CC(=O)Nc2cncc3ccccc23)c1` (stereo in doubt) registered an IC50 of 2.51 µM.

`CC1(C)Cc2cccc(OCCNC(=O)c3cc(=O)[nH]c4cc(F)ccc34)c2O1` registered an IC50 above 99.5 µM.

Take `N#Cc1ncc(Br)cn1`: the IC50 is above 99.5 µM.

In turn, `Cc1cc(Nc2ccc3nc(C)sc3c2)n2ncnc2n1` gave an IC50 above 99.5 µM.

`O=C(Nc1cncc2ccccc12)C1CN(C(=O)c2cnco2)Cc2ccc(Cl)cc21` (stereo not drawn): the IC50 was 1.07 µM.
